The record followed here is ChEMBL document CHEMBL1681768, “Synthesis and biological evaluation of 4-quinazolinones as Rho kinase inhibitors” (Bioorg Med Chem Lett, 2011).

What all share (format): ADME, organism-based
Data set [1] is described as follows: Volume of distribution at steady state in Sprague-Dawley rat at 1 mg/kg, iv. Also noted: dose 1 mg/kg, route intravenous. The conditions noted are these: in vivo, read-out: Vdss.
Data set [2] can be described thus: Cmax in Sprague-Dawley rat at 2 mg/kg, po. The conditions noted are these: in vivo. On the set-up: dose 2 mg/kg, route oral.
Data set [3] is described as follows: AUC in Sprague-Dawley rat at 2 mg/kg, po. Also noted: dose 2 mg/kg, route oral. The conditions noted are these: plasma.
The nature of data set [4]: Oral bioavailability in Sprague-Dawley rat at 2 mg/kg. The settings on record: in vivo.

In general, Cmax refers to the highest concentration seen after dosing. As a reminder, the AUC is concentration integrated over time. A lower AUC goes with less exposure. In general, bioavailability refers to the share of a dose that reaches the circulation, judged against a reference dose that is usually intravenous. The low end stands for little systemic uptake, the high end for much systemic uptake. As to `COc1ccc2c(c1)CC(c1nc3ccc(-c4cn[nH]c4)cc3c(=O)[nH]1)CO2` (centres undefined), in data set [1], the Vd came out at 0.27 L/kg. Further, the maximum concentration (Cmax) in data set [2] was 8000 nM. The area under the curve (AUC) in data set [3] worked out at 43.4 µM·h. This molecule registered a bioavailability in data set [4] of 66%.
Taken in the same sequence, the figures for `COc1ccc2c(c1)C[C@H](c1nc3ccc(-c4cn[nH]c4)cc3c(=O)[nH]1)CO2` were 0.14 L/kg, 2850 nM, 63.2 µM·h and 46%.
On to `COc1ccc2c(c1)C[C@@H](c1nc3ccc(-c4cn[nH]c4)cc3c(=O)[nH]1)CO2`, for which the Vd in data set [1] was determined as 0.49 L/kg. This molecule returned a Cmax in data set [2] of 580 nM. The molecule also displayed an area under the curve (AUC) in data set [3] of 2.36 µM·h. The molecule further showed a bioavailability in data set [4] of 13%.
As for `COc1ccc2c(c1)CC(c1nc3c(OC)cc(-c4cn[nH]c4)cc3c(=O)[nH]1)CO2` (centres undefined), in data set [1], the Vd was found to be 0.1 L/kg. In data set [2], this molecule gave a peak concentration (Cmax) of 4600 nM. Moreover, in data set [3], the AUC is 87.9 µM·h. In data set [4], this molecule registered a bioavailability of 26%.
For the molecule `COc1ccc2c(c1)CC(c1nc3c(OCCN(C)C)cc(-c4cn[nH]c4)cc3c(=O)[nH]1)CO2` (centres undefined), in data set [1], the Vd came out at 1.3 L/kg. The maximum concentration (Cmax) in data set [2] is 50 nM. The same molecule registered an exposure (AUC) in data set [3] of 0.15 µM·h. For the same molecule, the bioavailability in data set [4] is 3%.
In the case of `COc1cccc(OCc2nc3c(OC)cc(-c4cn[nH]c4)cc3c(=O)[nH]2)c1`, the Vd in data set [1] was found to be 0.22 L/kg. Also, in data set [2], the peak concentration (Cmax) worked out at 660 nM. The AUC in data set [3] came to 9.63 µM·h. The molecule also returned a bioavailability in data set [4] of 15%.
